Reference: patent US7498349B2, “Biaryl compounds having anti-infective activity” (Genesoft Pharmaceuticals, Inc., priority 2002, dated 2009)

Tests used:
B. cereus ATCC 11778 = assay: MIC, NCCLS broth microdilution assay; assay type: cell-based, Bacillus cereus; details: B. cereus ATCC 11778
S. aureus ATCC 27660 = assay: MIC, NCCLS broth microdilution assay; assay type: cell-based, Staphylococcus aureus; details: S. aureus ATCC 27660, methicillin resistant strain (MRSA)
C. albicans ATCC 38247 = assay: MIC, antifungal assay; assay type: cell-based, Candida albicans; details: C. albicans ATCC 38247
S. aureus ATCC 33591 = assay: MIC, NCCLS broth microdilution assay; assay type: cell-based, Staphylococcus aureus; details: S. aureus ATCC 33591
E. faecalis ATCC 29212 = assay: MIC, NCCLS broth microdilution assay; assay type: cell-based, Enterococcus faecalis; details: E. faecalis ATCC 29212
S. aureus ATCC 13709 = assay: MIC, NCCLS broth microdilution assay; assay type: cell-based, Staphylococcus aureus; details: S. aureus ATCC 13709, methicillin sensitive strain (MSSA)
[1] = system: E. faecium (ATCC 51559, VRE); details: E. faecium ATCC 51559, vancomycin resistant strain (VRE)
Excerpt: (§1) In vitro biological activity data were collected for a variety of microorganisms, including Bacillus cereus (ATCC 11778), Staphylococcus aureus (ATCC 33591; ATCC 27660, a methicillin resistant strain (MRSA); ATCC 13709, a methicillin sensitive strain (MSSA)), Escherichia coli (ATCC 25922), Enterococcus faecalis (ATCC 29212), Streptococcus pneumoniae (ATCC 49619; ATCC 51422, a penicillin resistant strain (PRSP)), Enterococcus faecium (ATCC 51559, a vancomycin resistant strain (VRE)), and Staphylococcus epidermidis (ATCC 12228). Additionally, antifungal activity data were collected for Candida albicans (ATCC 38247).
(§2) Compounds according to this invention were screened for their in vitro activities against selected species of bacteria and fungi. The minimal inhibition concentration (MIC) of these compounds was determined using the National Committee for Clinical Laboratory Standards (NCCLS) broth microdilution assay in microtiter plates, as set forth in: (1) the guidelines of the National Committee for Clinical Laboratory Standards (NCCLS) Document M7-A4 (NCCLS, 1997); (2) the guidelines of the National Committee for Clinical Laboratory Standards (NCCLS) Document M11-A4 (NCCLS, 1997); and (3) the guidelines and reference method of the National Committee for Clinical Laboratory Standards (NCCLS) Document M27 -T (NCCLS, 1995). For antifungal assays, the method recommended in Murray, PR., 1995 Manual of Clinical Microbiology (ASM Press, Washington, D.C.), was employed.
(§3) (MIC values are keyed in the same manner as Table B.)

[2] = system: S. pneumoniae (ATCC 51422, PRSP); details: S. pneumoniae ATCC 51422, penicillin resistant strain (PRSP)
Excerpt: as §1, §2, §3

[3] = system: S. epidermidis ATCC 12228; assay: MIC, NCCLS broth microdilution assay; assay type: cell-based, Staphylococcus epidermidis
E. coli ATCC 25922 = assay: MIC, NCCLS broth microdilution assay; assay type: cell-based, Escherichia coli; details: E. coli ATCC 25922
S. pneumoniae ATCC 49619 = assay: MIC, NCCLS broth microdilution assay; assay type: cell-based, Streptococcus pneumoniae; details: S. pneumoniae ATCC 49619

| SMILES | Minimum Inhibitory Concentration (MIC) (B. cereus ATCC 11778) | Minimum Inhibitory Concentration (MIC) (S. aureus ATCC 27660) | Minimum Inhibitory Concentration (MIC) (C. albicans ATCC 38247) | Minimum Inhibitory Concentration (MIC) (S. aureus ATCC 33591) | Minimum Inhibitory Concentration (MIC) (E. faecalis ATCC 29212) | Minimum Inhibitory Concentration (MIC) (S. aureus ATCC 13709) | Minimum Inhibitory Concentration (MIC) [1] | Minimum Inhibitory Concentration (MIC) [2] | Minimum Inhibitory Concentration (MIC) [3] | Minimum Inhibitory Concentration (MIC) (E. coli ATCC 25922) [µg/mL] | Minimum Inhibitory Concentration (MIC) (S. pneumoniae ATCC 49619) |
| --- | --- | --- | --- | --- | --- | --- | --- | --- | --- | --- | --- |
| NCCNc1snc(C(=O)Nc2ccc(-c3cc4ccccc4o3)cc2)c1Cl [Compound A-3] | + (12 ≦ MIC ≦ 32) | +++ (MIC ≦ 4) | +++ (MIC ≦ 4) | +++ (MIC ≦ 4) | +++ (MIC ≦ 4) | +++ (MIC ≦ 4) | +++ (MIC ≦ 4) | + (12 ≦ MIC ≦ 32) | +++ (MIC ≦ 4) | >32 | + (12 ≦ MIC ≦ 32) |
| Cc1cc(NC(=O)c2nsc(NCCCN)c2Cl)ccc1-c1cc2ccccc2o1 [Compound A-34] | +++ (MIC ≦ 4) | +++ (MIC ≦ 4) | +++ (MIC ≦ 4) | +++ (MIC ≦ 4) | +++ (MIC ≦ 4) | +++ (MIC ≦ 4) | +++ (MIC ≦ 4) | + (12 ≦ MIC ≦ 32) | +++ (MIC ≦ 4) | >32 | + (12 ≦ MIC ≦ 32) |
| CN(C)CCCNc1snc(C(=O)Nc2ccc(-c3cc4ccccc4o3)cc2)c1Cl [Compound A-7] | +++ (MIC ≦ 4) | +++ (MIC ≦ 4) | ++ (4 < MIC < 12) | +++ (MIC ≦ 4) | +++ (MIC ≦ 4) | +++ (MIC ≦ 4) | +++ (MIC ≦ 4) | + (12 ≦ MIC ≦ 32) | +++ (MIC ≦ 4) | >32 | + (12 ≦ MIC ≦ 32) |
| NCCCNc1snc(C(=O)Nc2ccc(-c3cc4ccccc4o3)cc2)c1Cl [Compound A-2] | +++ (MIC ≦ 4) | +++ (MIC ≦ 4) | ++ (4 < MIC < 12) | +++ (MIC ≦ 4) | +++ (MIC ≦ 4) | +++ (MIC ≦ 4) | +++ (MIC ≦ 4) | + (12 ≦ MIC ≦ 32) | +++ (MIC ≦ 4) | >32 | + (12 ≦ MIC ≦ 32) |
| Cc1ccc2nc(-c3ccc(NC(=O)c4nsc(NCCCN)c4Cl)cc3)sc2c1 [Compound A-53] | +++ (MIC ≦ 4) | +++ (MIC ≦ 4) | >32 µg/mL | +++ (MIC ≦ 4) | +++ (MIC ≦ 4) | +++ (MIC ≦ 4) | +++ (MIC ≦ 4) | + (12 ≦ MIC ≦ 32) | +++ (MIC ≦ 4) | >32 | >32 µg/mL |
| CN(C)CCCNc1ncccc1C(=O)Nc1ccc(-c2cc3ccccc3o2)cc1 [Compound A-11] | +++ (MIC ≦ 4) | +++ (MIC ≦ 4) | +++ (MIC ≦ 4) | +++ (MIC ≦ 4) | +++ (MIC ≦ 4) | +++ (MIC ≦ 4) | +++ (MIC ≦ 4) | + (12 ≦ MIC ≦ 32) | +++ (MIC ≦ 4) | >32 | + (12 ≦ MIC ≦ 32) |
| NCCCCNc1snc(C(=O)Nc2ccc(-c3cc4ccccc4s3)nc2)c1Cl [Compound A-68] | +++ (MIC ≦ 4) | +++ (MIC ≦ 4) | +++ (MIC ≦ 4) | +++ (MIC ≦ 4) | +++ (MIC ≦ 4) | +++ (MIC ≦ 4) | +++ (MIC ≦ 4) | >32 µg/mL | +++ (MIC ≦ 4) | >32 | >32 µg/mL |
